ChEMBL document CHEMBL3792292, “Development of a potent and selective FLT3 kinase inhibitor by systematic expansion of a non-selective fragment-screening hit” (Bioorg Med Chem Lett, 2016)

Columns and labels:
[1] = biological target: T1, Lymphokine-activated killer T-cell-originated protein kinase (Homo sapiens) (UniProt Q96KB5); assay: Inhibition of full length human N-terminal GST-tagged PBK (1 to 322 residues) expressed in baculovirus expression system using fluorescence labelled histone H3 peptide substrate at 50 times IC50 by electrophoretic mobility shift assay relative to control
T1 sequence (whole entry): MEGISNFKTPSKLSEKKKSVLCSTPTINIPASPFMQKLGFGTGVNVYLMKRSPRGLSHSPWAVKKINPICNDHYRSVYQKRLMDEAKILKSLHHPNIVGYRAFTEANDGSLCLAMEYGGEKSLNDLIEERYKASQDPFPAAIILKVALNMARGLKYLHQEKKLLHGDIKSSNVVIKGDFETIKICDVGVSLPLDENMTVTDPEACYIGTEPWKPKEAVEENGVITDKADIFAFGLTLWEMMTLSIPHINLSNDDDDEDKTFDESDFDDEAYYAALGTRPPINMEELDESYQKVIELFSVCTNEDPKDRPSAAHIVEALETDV

[2] = biological target: Angiopoietin-1 receptor (Homo sapiens) (UniProt Q02763); assay: Inhibition of human N-terminal GST-tagged TIE2 receptor cytoplasmic domain (771 to 1124 residues) expressed in baculovirus expression system using fluorescence labelled Blk/Lyntide as substrate at 50 times IC50 by electrophoretic mobility shift assay relative to control
Sequence of Angiopoietin-1 receptor (Homo sapiens) (Q02763 whole entry, the tested form may be a part): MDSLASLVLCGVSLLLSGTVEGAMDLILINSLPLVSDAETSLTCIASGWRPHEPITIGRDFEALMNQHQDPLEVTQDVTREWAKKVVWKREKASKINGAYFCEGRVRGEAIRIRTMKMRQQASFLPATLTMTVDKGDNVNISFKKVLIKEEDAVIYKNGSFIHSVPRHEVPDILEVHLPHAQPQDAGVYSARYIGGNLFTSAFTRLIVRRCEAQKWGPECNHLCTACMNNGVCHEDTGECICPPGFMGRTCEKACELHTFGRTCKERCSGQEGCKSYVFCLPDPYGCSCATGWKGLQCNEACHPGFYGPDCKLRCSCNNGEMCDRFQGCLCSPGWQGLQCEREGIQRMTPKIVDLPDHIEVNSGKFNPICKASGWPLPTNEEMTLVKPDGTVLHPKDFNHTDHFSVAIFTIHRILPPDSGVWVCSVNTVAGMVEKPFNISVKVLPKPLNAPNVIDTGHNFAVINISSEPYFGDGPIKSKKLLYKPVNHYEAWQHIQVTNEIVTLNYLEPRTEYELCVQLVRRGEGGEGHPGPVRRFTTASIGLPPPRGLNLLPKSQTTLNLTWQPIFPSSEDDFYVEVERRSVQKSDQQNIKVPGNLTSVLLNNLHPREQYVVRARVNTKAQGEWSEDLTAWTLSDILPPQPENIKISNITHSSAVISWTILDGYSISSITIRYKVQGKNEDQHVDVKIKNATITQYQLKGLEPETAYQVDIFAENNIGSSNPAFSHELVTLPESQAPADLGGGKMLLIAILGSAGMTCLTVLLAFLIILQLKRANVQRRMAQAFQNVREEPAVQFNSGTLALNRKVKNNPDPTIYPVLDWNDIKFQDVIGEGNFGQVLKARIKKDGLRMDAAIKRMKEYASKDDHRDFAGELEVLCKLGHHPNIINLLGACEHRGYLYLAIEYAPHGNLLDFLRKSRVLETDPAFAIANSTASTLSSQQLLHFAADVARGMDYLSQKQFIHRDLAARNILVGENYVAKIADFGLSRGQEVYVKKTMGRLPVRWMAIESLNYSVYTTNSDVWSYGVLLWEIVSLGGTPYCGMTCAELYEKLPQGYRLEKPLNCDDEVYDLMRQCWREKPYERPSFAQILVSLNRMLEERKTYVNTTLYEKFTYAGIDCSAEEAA

[3] = biological target: T2, Tyrosine-protein kinase JAK3 (Homo sapiens) (UniProt P52333); assay: Inhibition of human N-terminal His-tagged JAK3 catalytic domain (795 to 1124 residues) expressed in baculovirus expression system using fluorescence labelled srctide as substrate at 50 times IC50 by electrophoretic mobility shift assay relative to control
T2 sequence (whole entry): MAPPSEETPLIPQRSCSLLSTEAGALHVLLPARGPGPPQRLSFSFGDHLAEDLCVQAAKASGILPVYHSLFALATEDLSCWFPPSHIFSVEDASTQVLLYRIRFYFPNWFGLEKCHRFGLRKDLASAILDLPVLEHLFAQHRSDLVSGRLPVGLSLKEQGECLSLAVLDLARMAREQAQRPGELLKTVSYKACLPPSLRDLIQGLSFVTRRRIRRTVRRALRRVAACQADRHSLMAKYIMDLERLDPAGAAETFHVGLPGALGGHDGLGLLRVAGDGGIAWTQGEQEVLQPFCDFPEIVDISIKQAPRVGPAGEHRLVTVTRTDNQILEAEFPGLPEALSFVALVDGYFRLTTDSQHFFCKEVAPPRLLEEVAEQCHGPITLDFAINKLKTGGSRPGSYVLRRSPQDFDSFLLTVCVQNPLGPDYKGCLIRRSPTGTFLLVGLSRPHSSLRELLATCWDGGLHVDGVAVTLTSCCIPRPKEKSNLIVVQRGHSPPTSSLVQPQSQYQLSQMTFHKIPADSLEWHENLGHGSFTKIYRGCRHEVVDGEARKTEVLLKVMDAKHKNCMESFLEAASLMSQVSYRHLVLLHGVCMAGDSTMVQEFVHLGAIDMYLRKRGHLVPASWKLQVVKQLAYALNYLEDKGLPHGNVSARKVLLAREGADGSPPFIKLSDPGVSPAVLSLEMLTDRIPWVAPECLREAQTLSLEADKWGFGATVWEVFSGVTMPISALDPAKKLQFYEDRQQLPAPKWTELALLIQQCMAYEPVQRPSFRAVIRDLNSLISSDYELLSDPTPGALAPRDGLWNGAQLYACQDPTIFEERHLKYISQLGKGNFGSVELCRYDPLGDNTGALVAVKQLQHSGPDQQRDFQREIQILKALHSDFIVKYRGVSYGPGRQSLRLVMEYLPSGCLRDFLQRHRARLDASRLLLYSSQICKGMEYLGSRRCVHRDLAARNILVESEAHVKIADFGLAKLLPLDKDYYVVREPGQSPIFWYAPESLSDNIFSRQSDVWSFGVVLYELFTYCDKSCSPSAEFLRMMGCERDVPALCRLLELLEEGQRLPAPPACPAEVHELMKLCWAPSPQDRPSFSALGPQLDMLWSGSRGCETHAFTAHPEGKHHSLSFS

[4] = biological target: Casein kinase I isoform epsilon (Homo sapiens) (UniProt P49674); assay: Inhibition of human N-terminal GST-tagged CK1epsilon catalytic domain (1 to 348 residues) expressed in baculovirus expression system using fluorescence labelled CKtide as substrate at 50 times IC50 by electrophoretic mobility shift assay relative to control
Sequence of Casein kinase I isoform epsilon (Homo sapiens) (P49674 whole entry, looked up, the tested form may be a part, canonical isoform): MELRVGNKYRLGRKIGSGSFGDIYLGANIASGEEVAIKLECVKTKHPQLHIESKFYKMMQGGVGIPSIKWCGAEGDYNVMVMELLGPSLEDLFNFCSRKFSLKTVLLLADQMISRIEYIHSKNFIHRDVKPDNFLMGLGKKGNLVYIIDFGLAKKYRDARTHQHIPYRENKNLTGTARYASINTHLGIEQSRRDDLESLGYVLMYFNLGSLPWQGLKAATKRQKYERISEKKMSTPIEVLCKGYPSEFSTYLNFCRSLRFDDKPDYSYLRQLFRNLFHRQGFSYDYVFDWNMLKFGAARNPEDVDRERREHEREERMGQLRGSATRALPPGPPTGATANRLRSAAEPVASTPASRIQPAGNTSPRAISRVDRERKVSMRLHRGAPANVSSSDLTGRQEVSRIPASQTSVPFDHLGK

[5] = biological target: Mitogen-activated protein kinase 1 (Homo sapiens) (UniProt P28482); assay: Inhibition of full length human N-terminal GST-tagged ERK2 (1 to 360 residues) expressed in Escherichia coli using fluorescence labelled modified Erktide as substrate at 50 times IC50 by electrophoretic mobility shift assay relative to control
Sequence of Mitogen-activated protein kinase 1 (Homo sapiens) (P28482 whole entry, the tested form may be a part): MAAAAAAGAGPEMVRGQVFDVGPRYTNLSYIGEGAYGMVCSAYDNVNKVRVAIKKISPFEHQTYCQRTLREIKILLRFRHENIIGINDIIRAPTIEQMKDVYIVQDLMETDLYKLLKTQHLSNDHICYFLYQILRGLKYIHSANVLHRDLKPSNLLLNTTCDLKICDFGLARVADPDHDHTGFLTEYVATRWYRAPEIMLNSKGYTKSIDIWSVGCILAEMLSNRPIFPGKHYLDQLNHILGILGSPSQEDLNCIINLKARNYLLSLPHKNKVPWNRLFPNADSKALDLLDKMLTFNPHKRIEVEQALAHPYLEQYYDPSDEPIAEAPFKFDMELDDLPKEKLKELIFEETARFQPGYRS

[6] = biological target: Tyrosine-protein kinase CSK (Homo sapiens) (UniProt P41240); assay: Inhibition of full length human N-terminal GST-tagged CSK (1 to 450 residues) expressed in baculovirus expression system using fluorescence labelled srctide as substrate at 50 times IC50 by electrophoretic mobility shift assay relative to control
Sequence of Tyrosine-protein kinase CSK (Homo sapiens) (P41240 2-450 limits assumed): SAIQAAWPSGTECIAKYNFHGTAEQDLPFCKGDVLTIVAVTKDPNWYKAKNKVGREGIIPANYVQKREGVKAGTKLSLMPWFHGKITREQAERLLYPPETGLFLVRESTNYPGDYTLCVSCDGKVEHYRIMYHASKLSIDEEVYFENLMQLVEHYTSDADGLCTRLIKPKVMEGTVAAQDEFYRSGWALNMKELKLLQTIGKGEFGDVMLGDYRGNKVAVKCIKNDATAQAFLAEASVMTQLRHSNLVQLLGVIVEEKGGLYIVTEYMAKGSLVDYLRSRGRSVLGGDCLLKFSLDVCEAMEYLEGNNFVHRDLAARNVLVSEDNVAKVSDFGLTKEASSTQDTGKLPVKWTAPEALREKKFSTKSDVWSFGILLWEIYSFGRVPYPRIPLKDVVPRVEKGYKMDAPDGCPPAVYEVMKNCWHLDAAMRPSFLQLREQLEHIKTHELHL

[7] = biological target: CDK2/Cyclin A2 (Homo sapiens) (UniProt P24941+P20248); assay: Inhibition of full length human N-terminal GST-tagged CDK2 (1 to 298 residues)/Cyclin A2 (1 to 432 residues) expressed in baculovirus expression system using fluorescence labelled modified histone H1 as substrate at 50 times IC50 by electrophoretic mobility shift assay relative to control
[8] = biological target: Platelet-derived growth factor receptor alpha (Homo sapiens) (UniProt P16234); assay: Inhibition of human N-terminal GST-tagged PDGFRalpha cytoplasmic domain (550 to 1089 residues) expressed in baculovirus expression system using fluorescence labelled CSKtide as substrate at 50 times IC50 by electrophoretic mobility shift assay relative to control
Sequence of Platelet-derived growth factor receptor alpha (Homo sapiens) (P16234 whole entry, the tested form may be a part): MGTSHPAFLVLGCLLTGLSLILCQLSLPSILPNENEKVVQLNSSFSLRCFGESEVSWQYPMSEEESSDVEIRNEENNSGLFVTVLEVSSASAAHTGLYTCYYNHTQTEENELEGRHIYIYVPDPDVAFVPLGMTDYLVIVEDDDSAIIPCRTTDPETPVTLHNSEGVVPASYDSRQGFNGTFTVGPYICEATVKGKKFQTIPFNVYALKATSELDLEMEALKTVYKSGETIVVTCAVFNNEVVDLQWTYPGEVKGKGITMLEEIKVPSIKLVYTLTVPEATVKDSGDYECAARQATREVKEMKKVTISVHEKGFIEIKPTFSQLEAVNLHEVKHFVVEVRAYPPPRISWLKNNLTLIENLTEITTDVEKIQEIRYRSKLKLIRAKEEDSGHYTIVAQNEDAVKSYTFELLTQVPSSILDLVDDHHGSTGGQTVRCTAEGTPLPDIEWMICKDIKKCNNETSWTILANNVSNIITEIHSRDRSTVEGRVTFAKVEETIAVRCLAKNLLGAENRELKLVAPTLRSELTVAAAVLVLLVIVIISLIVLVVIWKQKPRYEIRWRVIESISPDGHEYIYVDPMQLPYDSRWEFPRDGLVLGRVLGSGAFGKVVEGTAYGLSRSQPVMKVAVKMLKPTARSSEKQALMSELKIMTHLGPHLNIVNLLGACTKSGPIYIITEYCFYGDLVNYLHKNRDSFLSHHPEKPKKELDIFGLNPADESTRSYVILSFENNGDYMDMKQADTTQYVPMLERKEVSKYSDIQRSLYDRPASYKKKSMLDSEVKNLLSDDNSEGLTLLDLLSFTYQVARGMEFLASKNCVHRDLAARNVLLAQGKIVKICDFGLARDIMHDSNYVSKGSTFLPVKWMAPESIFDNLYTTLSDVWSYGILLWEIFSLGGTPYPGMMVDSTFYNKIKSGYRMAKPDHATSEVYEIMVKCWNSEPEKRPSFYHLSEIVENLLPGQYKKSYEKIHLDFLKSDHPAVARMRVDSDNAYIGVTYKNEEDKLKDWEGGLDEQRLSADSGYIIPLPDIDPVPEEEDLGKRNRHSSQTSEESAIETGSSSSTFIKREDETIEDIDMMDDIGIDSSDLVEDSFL

Compound | inhibition [1] [%] | inhibition [2] [%] | inhibition [3] [%] | inhibition [4] [%] | inhibition [5] [%] | inhibition [6] [%] | inhibition [7] [%] | inhibition [8] [%]
O=C(Nc1ccc(C(=O)N2CCN(c3ccccc3)CC2)cc1)c1n[nH]c2ccccc12 | -1.9 | -2 | 26.4 | 21.3 | -0.8 | -5 | 14.9 | 47.2
O=C(Nc1ccccc1)c1n[nH]c2ccccc12 | 4.5 | 3 | 51.9 | 51.3 | 7 | -0.5 | 86.3 | 26.3
O=C(Nc1ccc(CN2CCN(c3ccccc3)CC2)cc1)c1n[nH]c2ccccc12 | -3.1 | -2.5 | 9 | 19.3 | -2.1 | -4.3 | 4.5 | 9.8
